# Assay: Tested for inhibition against purified catalytic subunit of protein phosphatase-1 from rabbit skeletal muscle
smiles,measurement,value
C/C=C1/C(=O)N[C@@H](C(=O)O)[C@H](C)C(=O)N[C@@H](C(C)C)C(=O)N[C@@H](/C=C/C(C)=C/[C@H](C)[C@H](Cc2ccccc2)OC)[C@H](C)C(=O)N[C@@H](C(=O)O)CCC(=O)N1C [Motuporin],IC50,< 1 nM

# — BindingDB's records for doi:10.1016/S0960-894X(00)80281-4 (1993)
